In ChEMBL document CHEMBL2062454, “SAR studies around a series of triazolopyridines as potent and selective PI3Kγ inhibitors” (Bioorg Med Chem Lett, 2012):

Columns and labels:
[1] = target: T1, Phosphatidylinositol 4,5-bisphosphate 3-kinase catalytic subunit gamma isoform (Homo sapiens, UniProt P48736); experiment: Inhibition of PI3Kgamma by high throughput chemoproteomics binding assay
[2] = target: T2, Phosphatidylinositol 4,5-bisphosphate 3-kinase catalytic subunit delta isoform (Homo sapiens, UniProt O00329); experiment: Inhibition of PI3Kdelta by high throughput chemoproteomics binding assay
T2 sequence (O00329 whole entry): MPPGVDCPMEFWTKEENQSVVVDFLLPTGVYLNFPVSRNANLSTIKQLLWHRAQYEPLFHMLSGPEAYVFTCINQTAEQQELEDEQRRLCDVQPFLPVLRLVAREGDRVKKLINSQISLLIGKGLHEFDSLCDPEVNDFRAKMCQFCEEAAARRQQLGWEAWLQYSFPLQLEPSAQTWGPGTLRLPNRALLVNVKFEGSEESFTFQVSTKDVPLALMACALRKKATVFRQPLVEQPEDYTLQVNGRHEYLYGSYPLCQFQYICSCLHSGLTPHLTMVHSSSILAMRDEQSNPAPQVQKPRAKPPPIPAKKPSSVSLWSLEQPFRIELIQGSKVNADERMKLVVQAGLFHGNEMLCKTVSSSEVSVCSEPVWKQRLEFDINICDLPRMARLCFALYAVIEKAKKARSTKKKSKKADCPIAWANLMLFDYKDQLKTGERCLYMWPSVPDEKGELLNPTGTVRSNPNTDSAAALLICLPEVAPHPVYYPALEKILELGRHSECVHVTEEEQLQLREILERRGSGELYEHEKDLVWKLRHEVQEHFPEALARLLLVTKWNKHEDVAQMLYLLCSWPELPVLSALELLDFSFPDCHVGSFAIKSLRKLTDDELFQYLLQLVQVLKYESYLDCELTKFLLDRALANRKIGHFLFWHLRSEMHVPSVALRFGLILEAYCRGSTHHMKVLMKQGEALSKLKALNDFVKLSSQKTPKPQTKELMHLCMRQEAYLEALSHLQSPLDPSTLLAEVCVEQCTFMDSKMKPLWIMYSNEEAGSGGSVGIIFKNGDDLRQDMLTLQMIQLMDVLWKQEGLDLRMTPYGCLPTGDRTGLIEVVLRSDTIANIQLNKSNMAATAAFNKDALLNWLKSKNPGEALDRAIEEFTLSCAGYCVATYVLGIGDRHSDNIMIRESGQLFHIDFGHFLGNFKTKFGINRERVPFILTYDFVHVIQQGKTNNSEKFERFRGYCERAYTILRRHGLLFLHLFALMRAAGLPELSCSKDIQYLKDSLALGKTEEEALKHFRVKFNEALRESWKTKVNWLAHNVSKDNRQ

[3] = target: Phosphatidylinositol 4,5-bisphosphate 3-kinase catalytic subunit alpha isoform (Homo sapiens, UniProt P42336); experiment: Inhibition of PI3Kalpha by high throughput chemoproteomics binding assay
[4] = target: Phosphatidylinositol 4,5-bisphosphate 3-kinase catalytic subunit beta isoform (Homo sapiens, UniProt P42338); experiment: Inhibition of PI3Kbeta by high throughput chemoproteomics binding assay
[5] = Half life in human microsomes; type: ADME, Microsome
[6] = Half life in rat microsomes; type: ADME, Microsome
[7] = Half life in mouse microsomes; type: ADME, Microsome
[8] = target: T1, Phosphatidylinositol 4,5-bisphosphate 3-kinase catalytic subunit gamma isoform; experiment: Inhibition of PI3Kgamma assessed as inhibition of C5a-induced AKT phosphorylation at Ser473 by cell based assay
Homo sapiens [9] = species on record: Homo sapiens; experiment: Selectivity ratio of IC50 for PI3Kdelta to IC50 for PI3Kgamma
Homo sapiens [10] = species on record: Homo sapiens; experiment: Selectivity ratio of IC50 for PI3Kalpha to IC50 for PI3Kgamma
[11] = Protein binding in plasma; type: ADME, cell-free; details: read-out: PPB
Homo sapiens [12] = species on record: Homo sapiens; experiment: Selectivity ratio of IC50 for PI3Kbeta to IC50 for PI3Kgamma

Sequence of Phosphatidylinositol 4,5-bisphosphate 3-kinase catalytic subunit alpha isoform (P42336 whole entry, canonical isoform): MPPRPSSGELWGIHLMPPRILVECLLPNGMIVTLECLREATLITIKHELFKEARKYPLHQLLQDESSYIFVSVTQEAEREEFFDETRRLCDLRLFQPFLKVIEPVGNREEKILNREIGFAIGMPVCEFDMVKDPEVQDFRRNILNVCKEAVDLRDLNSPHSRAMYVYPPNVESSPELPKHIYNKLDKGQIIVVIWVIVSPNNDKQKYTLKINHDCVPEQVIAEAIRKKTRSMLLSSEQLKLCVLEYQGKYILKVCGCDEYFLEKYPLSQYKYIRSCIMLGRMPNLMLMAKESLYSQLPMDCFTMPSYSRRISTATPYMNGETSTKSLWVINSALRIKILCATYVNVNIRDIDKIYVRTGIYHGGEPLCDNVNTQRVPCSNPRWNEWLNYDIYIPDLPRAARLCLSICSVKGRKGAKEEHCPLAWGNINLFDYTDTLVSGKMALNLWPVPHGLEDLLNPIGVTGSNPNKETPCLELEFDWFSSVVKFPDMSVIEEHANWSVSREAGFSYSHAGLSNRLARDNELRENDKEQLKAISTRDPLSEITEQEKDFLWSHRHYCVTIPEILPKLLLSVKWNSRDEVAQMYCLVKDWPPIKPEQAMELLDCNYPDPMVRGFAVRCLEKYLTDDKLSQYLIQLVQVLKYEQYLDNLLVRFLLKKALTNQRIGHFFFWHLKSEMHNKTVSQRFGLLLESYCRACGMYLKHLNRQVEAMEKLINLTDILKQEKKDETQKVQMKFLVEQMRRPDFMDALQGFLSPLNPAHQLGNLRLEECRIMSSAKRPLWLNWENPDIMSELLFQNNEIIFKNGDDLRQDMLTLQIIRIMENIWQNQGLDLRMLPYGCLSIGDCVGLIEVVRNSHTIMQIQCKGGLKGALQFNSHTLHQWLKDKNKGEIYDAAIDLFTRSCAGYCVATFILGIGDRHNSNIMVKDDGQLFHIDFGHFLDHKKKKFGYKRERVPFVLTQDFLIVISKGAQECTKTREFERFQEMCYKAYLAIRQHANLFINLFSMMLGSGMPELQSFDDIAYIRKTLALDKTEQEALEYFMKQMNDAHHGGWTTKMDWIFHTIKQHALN
T1 sequence (P48736 whole entry, canonical isoform): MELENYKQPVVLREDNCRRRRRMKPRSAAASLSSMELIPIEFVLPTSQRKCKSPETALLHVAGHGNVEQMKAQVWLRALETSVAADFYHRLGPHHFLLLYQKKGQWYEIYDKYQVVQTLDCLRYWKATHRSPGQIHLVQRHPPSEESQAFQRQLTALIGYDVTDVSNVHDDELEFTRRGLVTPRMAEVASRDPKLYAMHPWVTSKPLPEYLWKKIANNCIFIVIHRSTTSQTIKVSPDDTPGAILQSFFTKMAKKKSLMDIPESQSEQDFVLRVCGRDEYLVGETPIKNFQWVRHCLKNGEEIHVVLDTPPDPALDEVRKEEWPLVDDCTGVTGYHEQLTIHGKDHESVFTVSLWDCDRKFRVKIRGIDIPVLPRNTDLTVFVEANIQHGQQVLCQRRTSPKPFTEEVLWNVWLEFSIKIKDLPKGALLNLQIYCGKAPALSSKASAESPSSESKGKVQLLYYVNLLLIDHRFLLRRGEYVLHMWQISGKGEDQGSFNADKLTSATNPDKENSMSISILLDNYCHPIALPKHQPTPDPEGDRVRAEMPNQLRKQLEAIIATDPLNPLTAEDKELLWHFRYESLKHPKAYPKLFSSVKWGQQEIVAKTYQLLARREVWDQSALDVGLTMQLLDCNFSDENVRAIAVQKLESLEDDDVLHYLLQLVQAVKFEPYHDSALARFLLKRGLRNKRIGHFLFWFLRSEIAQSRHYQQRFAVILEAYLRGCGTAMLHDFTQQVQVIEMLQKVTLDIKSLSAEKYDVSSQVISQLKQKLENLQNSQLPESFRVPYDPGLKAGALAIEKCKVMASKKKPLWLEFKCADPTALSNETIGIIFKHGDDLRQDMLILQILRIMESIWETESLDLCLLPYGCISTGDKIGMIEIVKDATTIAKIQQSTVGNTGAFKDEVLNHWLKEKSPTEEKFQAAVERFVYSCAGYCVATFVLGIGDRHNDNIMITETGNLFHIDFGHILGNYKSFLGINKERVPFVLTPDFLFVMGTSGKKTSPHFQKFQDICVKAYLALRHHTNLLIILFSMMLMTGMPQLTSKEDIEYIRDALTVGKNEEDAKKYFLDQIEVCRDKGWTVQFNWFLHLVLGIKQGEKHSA
Sequence of Phosphatidylinositol 4,5-bisphosphate 3-kinase catalytic subunit beta isoform (P42338 whole entry, canonical isoform): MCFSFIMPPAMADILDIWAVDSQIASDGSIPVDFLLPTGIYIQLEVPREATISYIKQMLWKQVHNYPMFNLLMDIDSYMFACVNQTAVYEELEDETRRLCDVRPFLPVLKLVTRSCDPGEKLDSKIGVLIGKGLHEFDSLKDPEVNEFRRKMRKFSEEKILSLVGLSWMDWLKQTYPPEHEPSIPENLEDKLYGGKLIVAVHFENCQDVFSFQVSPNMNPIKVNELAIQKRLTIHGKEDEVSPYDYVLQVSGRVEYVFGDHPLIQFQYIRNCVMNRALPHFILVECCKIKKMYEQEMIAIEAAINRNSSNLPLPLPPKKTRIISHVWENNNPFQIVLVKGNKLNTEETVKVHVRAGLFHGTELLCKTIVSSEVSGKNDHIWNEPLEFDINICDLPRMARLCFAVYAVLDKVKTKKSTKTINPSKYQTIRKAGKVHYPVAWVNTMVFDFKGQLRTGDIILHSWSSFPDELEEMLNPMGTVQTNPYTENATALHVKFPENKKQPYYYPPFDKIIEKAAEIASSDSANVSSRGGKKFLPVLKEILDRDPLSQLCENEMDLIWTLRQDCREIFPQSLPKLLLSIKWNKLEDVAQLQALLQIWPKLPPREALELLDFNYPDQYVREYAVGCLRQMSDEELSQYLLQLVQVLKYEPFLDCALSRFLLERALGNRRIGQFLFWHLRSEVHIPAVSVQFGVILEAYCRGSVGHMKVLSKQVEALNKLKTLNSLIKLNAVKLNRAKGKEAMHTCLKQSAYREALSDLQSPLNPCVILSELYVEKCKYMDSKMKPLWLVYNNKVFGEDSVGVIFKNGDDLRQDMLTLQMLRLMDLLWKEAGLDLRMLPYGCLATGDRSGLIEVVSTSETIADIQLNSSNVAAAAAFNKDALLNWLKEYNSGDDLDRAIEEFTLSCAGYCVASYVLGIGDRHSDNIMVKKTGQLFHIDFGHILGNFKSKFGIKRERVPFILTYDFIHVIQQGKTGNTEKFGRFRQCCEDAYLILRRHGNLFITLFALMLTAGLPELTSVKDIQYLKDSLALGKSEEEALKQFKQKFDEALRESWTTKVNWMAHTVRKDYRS

SMILES	IC50 [1]	IC50 [2]	IC50 [3]	other results
CC(=O)Nc1nc2ccc(-c3ccncc3)cn2n1	1.58 µM	> 100 µM	1.58 µM	
CC(=O)Nc1nc2c(F)cc(-c3cncc(S(C)(=O)=O)c3)cn2n1	0.126 µM	> 20 µM	> 20 µM	IC50 [4]: 20 µM
CC(=O)Nc1nc2ccc(-c3cccc(-c4ccccc4)c3)cn2n1	> 3.98 µM	> 100 µM	> 20 µM	
CC(=O)Nc1nc2ccc(-c3cccc(S(=O)(=O)NCc4ccccc4)c3)cn2n1	0.501 µM	6.31 µM	> 100 µM	
CS(=O)(=O)c1cncc(-c2cc(C(F)(F)F)c3nc(N)nn3c2)c1	> 100 µM	> 100 µM	> 100 µM	
COc1cncc(-c2ccc3nc(NC(C)=O)nn3c2)c1	0.0631 µM	> 10 µM	> 3.98 µM	
COc1cccc(-c2ccc3nc(NC(C)=O)nn3c2)c1	0.158 µM	> 79.4 µM	> 79.4 µM	
CC(=O)Nc1nc2ccc(-c3cncc(S(C)(=O)=O)c3)cn2n1				half-life [5]: > 45 min; half-life [6]: > 45 min; half-life [7]: > 45 min
Nc1nc2ccc(-c3cncc(S(=O)(=O)NCC4CC4)c3)cn2n1	0.0158 µM	> 6.31 µM	3.16 µM	IC50 [8]: 2 µM
Nc1nc2ccc(-c3cncc(S(=O)(=O)Nc4ccc(Cl)cc4)c3)cn2n1	0.631 µM	6.31 µM	3.98 µM	IC50 [8]: > 12.6 µM
CC(=O)Nc1nc2ccc(-c3cccnc3)cn2n1	0.251 µM	> 31.6 µM	15.8 µM	Ratio IC50 (Homo sapiens [9]): > 60; Ratio IC50 (Homo sapiens [10]): > 60
CNC(=O)c1cccc(-c2ccc3nc(NC(C)=O)nn3c2)c1	0.631 µM	> 100 µM	> 50.1 µM	
CC(C)(C)NS(=O)(=O)c1cncc(-c2cn3nc(N)nc3cc2F)c1	25.1 µM	> 100 µM	> 100 µM	IC50 [4]: > 100 µM
CNc1nc2ccc(-c3cncc(S(C)(=O)=O)c3)cn2n1	0.316 µM	> 25.1 µM	> 3.98 µM	
CC(=O)Nc1nc2ccc(-c3cncc(CS(N)(=O)=O)c3)cn2n1	0.00794 µM	> 1 µM	> 0.1 µM	
Nc1nc2ccc(-c3cncc(NS(=O)(=O)c4ccc(Cl)cc4)c3)cn2n1	0.00631 µM	0.398 µM	0.158 µM	IC50 [8]: 2 µM; fraction unbound [11]: < 0.01
CNS(=O)(=O)c1cccc(-c2ccc3nc(NC(C)=O)nn3c2)c1	0.251 µM	1 µM	> 10 µM	
CS(=O)(=O)c1cncc(-c2cc(Cl)c3nc(N)nn3c2)c1	2 µM	> 100 µM	> 100 µM	IC50 [4]: > 100 µM
CC(=O)Nc1nc2ccc(-c3cncnc3)cn2n1	3.98 µM	> 100 µM	> 15.8 µM	
CC(=O)Nc1nc2ccc(-c3cccc(NS(C)(=O)=O)c3)cn2n1	0.316 µM	5.01 µM	5.01 µM	
CC(=O)Nc1nc2ccc(-c3cncc(S(=O)(=O)NCc4ccccc4)c3)cn2n1	0.0398 µM	3.16 µM	> 3.16 µM	
Nc1nc2ccc(-c3cncc(S(=O)(=O)NCc4ccccc4)c3)cn2n1	0.251 µM	7.94 µM	> 20 µM	IC50 [8]: 1.26 µM
CS(=O)(=O)Nc1nc2ccc(-c3cncc(S(C)(=O)=O)c3)cn2n1	> 39.8 µM	> 100 µM	> 100 µM	

SMILES	IC50 [1]	IC50 [2]	IC50 [3]	other results
CNS(=O)(=O)c1ccc(-c2ccc3nc(NC(C)=O)nn3c2)cc1	> 50.1 µM	> 100 µM	> 100 µM	
CC(=O)Nc1nc2ccc(-c3sc(C)nc3C)cn2n1	> 12.6 µM	> 100 µM	6.31 µM	
CS(=O)(=O)Nc1cccc(-c2ccc3nc(NC(=O)C4CCCCC4)nn3c2)c1	0.316 µM	0.501 µM	> 100 µM	
CC(C)NS(=O)(=O)c1cncc(-c2ccc3nc(N)nn3c2)c1	0.0316 µM	1.58 µM	2.51 µM	half-life [5]: > 45 min; half-life [6]: > 45 min; half-life [7]: > 45 min; IC50 [8]: 1.58 µM
CCCCNS(=O)(=O)c1cccc(-c2ccc3nc(NC(C)=O)nn3c2)c1	0.2 µM	1.26 µM	10 µM	
COc1ccc(-c2ccc3nc(NC(C)=O)nn3c2)cc1OC	0.0398 µM	2 µM	0.316 µM	
CC(=O)Nc1nc2ccc(-c3cnn(C)c3)cn2n1	3.98 µM	> 100 µM	> 63.1 µM	
CC(=O)Nc1nc2ccc(-c3ccsc3)cn2n1	0.398 µM	> 20 µM	0.2 µM	
CC(=O)Nc1nc2ccc(-c3cccc(S(C)(=O)=O)c3)cn2n1	0.501 µM	3.16 µM	> 50.1 µM	IC50 [8]: > 12.6 µM
CC(=O)N(C)c1nc2ccc(-c3cccc(S(C)(=O)=O)c3)cn2n1	> 31.6 µM	> 100 µM	> 100 µM	
CC(=O)Nc1nc2cc(C)c(-c3cncc(S(C)(=O)=O)c3)cn2n1	> 100 µM	> 100 µM	> 100 µM	IC50 [4]: 200 µM
CS(=O)(=O)c1cncc(-c2ccc3nc(N)nn3c2)c1				IC50 [8]: 2 µM
CC(=O)Nc1nc2ccc(-c3ccc(S(C)(=O)=O)cc3)cn2n1	> 100 µM	> 100 µM	> 100 µM	
CC(C)(C)S(=O)(=O)c1cncc(-c2ccc3nc(N)nn3c2)c1	0.158 µM	3.16 µM	> 15.8 µM	IC50 [8]: > 10 µM
COc1ccc(-c2ccc3nc(NC(C)=O)nn3c2)cc1	1 µM	31.6 µM	25.1 µM	
CC(=O)Nc1nc2ccc(-c3cncc4ccccc34)cn2n1	3.16 µM	> 100 µM	> 100 µM	
CN(C)c1nc2ccc(-c3cncc(S(C)(=O)=O)c3)cn2n1	3.16 µM	> 100 µM	> 100 µM	
CC(=O)Nc1nc2ccc(-c3cncc(S(C)(=O)=O)c3)c(C)n2n1	1 µM	> 39.8 µM	> 100 µM	IC50 [4]: 25.1 µM
COc1ccccc1-c1ccc2nc(NC(C)=O)nn2c1	3.98 µM	31.6 µM	> 100 µM	IC50 [4]: > 100 µM; Ratio IC50 (Homo sapiens [9]): 5; Ratio IC50 (Homo sapiens [10]): > 30; Ratio IC50 (Homo sapiens [12]): > 30
CC(=O)Nc1nc2ccc(-c3cc(C)c(O)c(C)c3)cn2n1	2 µM	6.31 µM	12.6 µM	IC50 [4]: 20 µM; Ratio IC50 (Homo sapiens [9]): 5; Ratio IC50 (Homo sapiens [10]): 6.3; Ratio IC50 (Homo sapiens [12]): 10
CC(=O)Nc1nc2c(C)cc(-c3cncc(S(C)(=O)=O)c3)cn2n1	0.1 µM	> 5.01 µM	> 39.8 µM	IC50 [4]: 20 µM
COc1ccc(-c2ccc3nc(NC(C)=O)nn3c2)cc1S(=O)(=O)NCc1ccccc1	> 100 µM	> 10 µM	> 100 µM	
